The source of these data is patent US9789102B2, “H3 receptor antagonist for use in the treatment of alzheimer's disease” (SANOFI, priority 2012, dated 2017).

In series [1] the test system is tau phosphorylation on AD2 epitope (pSer396-pSer404). As to the kind of experiment: Western blot of tau phosphorylation on AD-2 epitope after six months in food (Example 3). The following applies: 0.0034% in food. The format is in vivo, THY-Tau22 mice. From the text: 2-(Cyclohexylmethyl)-N-{2-[(2S)-1-methylpyrrolidin-2-yl]ethyl}-1,2,3,4-tetrahydroisoquinoline-7-sulfonamide difumarate monohydrate was administrated as a supplement in food at doses of 0.00034%, 0.0034% and 0.034% for six months in THY-Tau22 and wild type mice as follows: • Tg Veh (n=17) • Tg Active Ingredient—0.034% (n=17) • Tg Active Ingredient—0.0034% (n=17) • Tg Active Ingredient—0.00034% (n=17) • WT Veh (n=17) • WT Active Ingredient—0.034% (n=17) • WT Active Ingredient—0.0034% (n=17) • WT Active Ingredient—0.00034% (n=17) • WT groups treated with Active Ingredient are not used in the biochemical and histological studies.
For immunoblot analysis, frozen mouse tissues (either hippocampus or cortex) were homogenized using a Precellys 24 tissue homogenizer in 350 μl RIPA buffer from Cell Signaling (20 mM Tris-HCl (pH 7.5), 150 mM NaCl, 1 mM Na2 EDTA, 1 mM EGTA, 1% NP-40, 1% sodium deoxycholate, 2.5 mM sodium pyrophosphate, 1 mM beta-glycerophosphate, 1 mM Na3VO4, 1 μg/ml leupeptin) to which proteases inhibitors (Sigma cocktail 1% v/v) and phosphatases inhibitors (okadaic acid 1 μM, sodium fluoride 100 mM) were added. After centrifugation, 16000×g 4° C. for 10 minutes, protein content in supernatants was determined with BioRad DC Protein Assay kit, using BSA as a standard. Equal amounts of protein (5 μg) were loaded on 15-well 4-12% Bis-Tris gels (NuPAGE, Invitrogen) and electrophoresis was performed at 200V for 50 minutes in MOPS buffer according to the manufacturer's instructions. […] Tau protein was detected using the following mouse antibody: AD-2 1/20.000^e (Biorad, 56484) which recognizes tau protein phosphorylated on Ser396 and Ser404. […]
Following incubation with primary antibodies, blots were rinsed in TBS Tween 0.1% and incubated for 1 hour at room temperature in an anti-mouse IgG horseradish peroxidase (HRP)-linked secondary antibody 1/10,000^e (GE healthcare, NA9310) diluted in 5% non-fat dry milk in TBS Tween 0.1%. […] Quantification of immunoreactive signal was performed using Multigauge V3.0 software (FUJIFILM). […]

Series [2] relates to tau phosphorylation at the AT-8 epitope. As to the kind of experiment: Western blot analysis of tau phosphorylation at AT-8 epitope after six months in food. The format is in vivo, THY-Tau22 mice. The following applies: 0.0034% in food, trend only, ns. For orientation: Immunoblotting shows a protein as a band on a membrane.
The nature of series [3]: Comparison of exposures in mice (6 months in food) with those expected at steady state in AD patients. In kind it is in vivo.

In the case of `CN1CCC[C@H]1CCNS(=O)(=O)c1ccc2c(c1)CN(CC1CCCCC1)CC2` [2-(cyclohexylmethyl)-N-{2-[(2S)-1-methylpyrrolidin-2-yl]ethyl}-1,2,3,4-tetrahydroisoquinoline-7-sulfonamide difumarate monohydrate], the “protein tau phosphorylation on AD-2 epitope in hippocampus, vs vehicle” value in series [1] (THY-Tau22 mice) is recorded as “statistical significant decrease”. In series [1] (Western blot, non-significant, p=0.1807), the “inhibition of tau phosphorylation at the AD-2 epitope, cortex” value was −57%. In addition, the “inhibition of tau phosphorylation at the AD-2 epitope, hippocampus” value in series [1] (Western blot, p=0.0229 vs vehicle) is −37%. For the same compound, the “inhibition of tau phosphorylation at the AT-8 epitope, hippocampus” value in series [2] is on record as −22%. Moreover, the “corresponding human dose (safe for patients) by comparison of exposures” value is “about 0.25 mg” in series [3] (0.00034% in food of mice) and “about 2.5 mg” in series [3] (0.0034% in food of mice).
